Measurements taken from patent publication US10076116B2, “N-cycloalkyl-N-(biheterocyclymethylene)-(thio)carboxamide derivatives” (BAYER CROPSCIENCE AKTIENGESELLSCHAFT, priority 2013, dated 2018).

How the values were obtained:
Puccinia recondita = assay: In vivo preventive test on Puccinia recondita (brown rust on wheat)
Method: Example C: In Vivo Preventive Test on Puccinia recondita (Brown Rust on Wheat) […]
The young plants of wheat are treated by spraying the active ingredient prepared as described above. […]
After 24 hours, the plants are contaminated by spraying the leaves with an aqueous suspension of Puccinia recondita spores. The contaminated wheat plants are incubated for 24 hours at 20° C. and at 100% relative humidity and then for 10 days at 20° C. and at 70-80% relative humidity.
The test is evaluated 11 days after the inoculation. 0% means an efficacy which corresponds to that of the control plants while an efficacy of 100% means that no disease is observed.

Botrytis cinerea = assay: In vivo preventive test on Botrytis cinerea (grey mould); conditions: gherkin; for protection: dose of 500 and 100 ppm of active ingredient
Method: Example B: In Vivo Preventive Test Botrvtis Cinerea (Grey Mould) Solvent: 5% by volume of Dimethyl sulfoxide • 10% by volume of Acetone Emulsifier: 1 μL of TWEEN® 80 per mg of active ingredient The active ingredients are made soluble and homogenized in a mixture of Dimethyl sulfoxide/Acetone/TWEEN® 80 and then diluted in water to the desired concentration. The young plants of gherkin are treated by spraying the active ingredient prepared as described above. Control plants are treated only with an aqueous solution of Acetone/Dimethyl sulfoxide/TWEEN® 80. After 24 hours, the plants are contaminated by spraying the leaves with an aqueous suspension of Botrytis cinerea spores. The contaminated gherkin plants are incubated for 4 to 5 days at 17° C. and at 90% relative humidity. The test is evaluated 4 to 5 days after the inoculation. 0% means an efficacy which corresponds to that of the control plants while an efficacy of 100% means that no disease is observed.

Uromyces appendiculatus = assay: In vivo preventive test on Uromyces appendiculatus (bean rust)
Method: Example G: In Vivo Preventive Test on Uromvces Appendiculatus (Bean Rust) Solvent: 5% by volume of Dimethyl sulfoxide • 10% by volume of Acetone Emulsifier: 1 μL of TWEEN® 80 per mg of active ingredient The active ingredients are made soluble and homogenized in a mixture of Dimethyl sulfoxide/Acetone/TWEEN® 80 and then diluted in water to the desired concentration. The young plants of bean are treated by spraying the active ingredient prepared as described above. Control plants are treated only with an aqueous solution of Acetone/Dimethyl sulfoxide/TWEEN® 80. After 24 hours, the plants are contaminated by spraying the leaves with an aqueous suspension of Uromyces appendiculatus spores. The contaminated bean plants are incubated for 24 hours at 20° C. and at 100% relative humidity and then for 10 days at 20° C. and at 70-80% relative humidity. The test is evaluated 11 days after the inoculation. 0% means an efficacy which corresponds to that of the control plants while an efficacy of 100% means that no disease is observed.

[1] = log P by HPLC on reversed-phase column (C 18), EEC Directive 79/831 Annex V.A8; assay type: physicochemical; conditions: HPLC C 18, 40° C., 0.1% aqueous formic acid and acetonitrile, gradient 10% to 90% acetonitrile
Method: In table 1, the log P values were determined in accordance with EEC Directive 79/831 Annex V.A8 by HPLC (High Performance Liquid Chromatography) on a reversed-phase column (C 18), using the method described below: Temperature: 40° C.; Mobile phases: 0.1% aqueous formic acid and acetonitrile; linear gradient from 10% acetonitrile to 90% acetonitrile. Calibration was carried out using unbranched alkan-2-ones (comprising 3 to 16 carbon atoms) with known log P values (determination of the log P values by the retention times using linear interpolation between two successive alkanones). lambda-max-values were determined using UV-spectra from 200 nm to 400 nm and the peak values of the chromatographic signals.

[2] = dose 500 ppm, in very similar conditions, prior-art analogues
[3] = very similar conditions, formulated in DMF with 2% of alkylarylpolyglycolether
[4] = in very similar conditions, dose of 500 and 100 ppm, analogues of WO2012/059497
[5] = wheat, compounds of this patent
[6] = dose 100 ppm, wheat, compounds of this patent
[7] = dose 500 ppm, wheat, compounds of this patent

## Cn1cc(C(=O)N(Cc2ccc(Oc3ccccc3)nc2)C2CC2)c(C(F)F)n1 [36 from WO-2008/037789, N-cyclopropyl-3-(difluoromethyl)-1-methyl-N-[(6-phenoxypyridin-3-yl)methyl]-1H-pyrazole-4-carboxamide]
Puccinia recondita; dose 125 ppm, in very similar conditions, prior-art analogues
  Efficacy (Table C2): 0%
Puccinia recondita; [2]
  Efficacy (Table C2): 0%
Puccinia recondita; in very similar conditions, dose of 500 and 125 ppm, analogues of WO2009/016222 and WO2008/037789
  protection: good (at least 70%) to no protection

## Cc1nc(-c2ccc(Cl)cc2)sc1CN(C(=O)c1cn(C)nc1C(F)F)C1CC1 [45 from WO2008/015189, N-{[2-(4-chlorophenyl)-4-methyl-1,3-thiazol-5-yl]methyl}-N-cyclopropyl-3-(difluoromethyl)-1-methyl-1H-pyrazole-4-carboxamide]
Puccinia recondita; [2]
  Efficacy (Table C3): 0%

## Cn1nc(C(=O)N(Cc2nc(-c3ccc(Cl)cc3)cs2)C2CC2)c(C(F)(F)F)n1 [50 from WO2008/015189, N-{[4-(4-chlorophenyl)-1,3-thiazol-2-yl]methyl}-N-cyclopropyl-2-methyl-5-(trifluoromethyl)-2H-1,2,3-triazole-4-carboxamide]
Puccinia recondita; [2]
  Efficacy (Table C3): 0%

## Cn1cc(C(=O)N(Cc2nc(-c3ccc(Cl)cc3)cs2)C2CC2)c(C(F)(F)F)n1 [59 from WO2008/015189, N-{[4-(4-chlorophenyl)-1,3-thiazol-2-yl]methyl}-N-cyclopropyl-1-methyl-3-(trifluoromethyl)-1H-pyrazole-4-carboxamide]
Puccinia recondita; [2]
  Efficacy (Table C3): 0%

## Cc1nn(-c2ccccc2)nc1CN(C(=O)c1c(C(F)F)nn(C)c1F)C1CC1 [131 from WO2012/059497, N-cyclopropyl-3-(difluoromethyl)-5-fluoro-1-methyl-N-[(5-methyl-2-phenyl-2H-1,2,3-triazol-4-yl)methyl]-1H-pyrazole-4-carboxamide]
Puccinia recondita; [3]
  Efficacy at 100 ppm (Table C1): 0%
  Efficacy at 500 ppm (Table C1): 11%
Puccinia recondita; [4]
  protection: good (at least 80%) to no protection

## Cc1sc(-c2ccccc2)cc1C(C)N(C(=O)c1c(C(F)F)nn(C)c1F)C1CC1 (centres unmarked) [147 from WO2012/059497, N-cyclopropyl-3-(difluoromethyl)-5-fluoro-1-methyl-N-[1-(2-methyl-5-phenyl-3-thienyl)ethyl]-1H-pyrazole-4-carboxamide]
Puccinia recondita; [3]
  Efficacy at 100 ppm (Table C1): 0%
  Efficacy at 500 ppm (Table C1): 30%
Puccinia recondita; [4]
  protection: good (at least 80%) to no protection

## Cn1nc(C(F)F)c(C(=O)N(Cc2cc(-c3ccc(Cl)cc3)no2)C2CC2)c1F [153 from WO2012/059497, N-{[3-(4-chlorophenyl)-1,2-oxazol-5-yl]methyl}-N-cyclopropyl-3-(difluoromethyl)-5-fluoro-1-methyl-1H-pyrazole-4-carboxamide]
Puccinia recondita; [3]
  Efficacy at 100 ppm (Table C1): 10%
  Efficacy at 500 ppm (Table C1): 80%
Puccinia recondita; [4]
  protection: good (at least 80%) to no protection

## Cn1nc(C(F)F)c(C(=O)N(Cc2cc3ccccc3n2-c2ccccc2)C2CC2)c1F [155 from WO2012/059497, N-cyclopropyl-3-(difluoromethyl)-5-fluoro-1-methyl-N-[(1-phenyl-1H-indol-2-yl)methyl]-1H-pyrazole-4-carboxamide]
Puccinia recondita; [3]
  Efficacy at 100 ppm (Table C1): 0%
  Efficacy at 500 ppm (Table C1): 20%
Puccinia recondita; [4]
  protection: good (at least 80%) to no protection

## Cn1nc(C(F)F)c(C(=O)N(Cc2cc(-c3cc(F)c(F)c(F)c3)no2)C2CC2)c1F [165 from WO2012/059497, N-cyclopropyl-3-(difluoromethyl)-5-fluoro-1-methyl-N-{[3-(3,4,5-trifluorophenyl)-1,2-oxazol-5-yl]methyl}-1H-pyrazole-4-carboxamide]
Puccinia recondita; [3]
  Efficacy at 100 ppm (Table C1): 0%
  Efficacy at 500 ppm (Table C1): 10%
Puccinia recondita; [4]
  protection: good (at least 80%) to no protection

## Cc1nc(-c2ccc(Cl)cc2)sc1CN(C(=O)c1c(C(F)F)nn(C)c1F)C1CC1 [167 from WO2012/059497, N-{[2-(4-chlorophenyl)-4-methyl-1,3-thiazol-5-yl]methyl}-N-cyclopropyl-3-(difluoromethyl)-5-fluoro-1-methyl-1H-pyrazole-4-carboxamide]
Puccinia recondita; [3]
  Efficacy at 100 ppm (Table C1): 0%
  Efficacy at 500 ppm (Table C1): 0%
Puccinia recondita; [4]
  protection: good (at least 80%) to no protection

## Cn1nc(C(F)F)c(C(=O)N(Cc2ncc(C(F)(F)F)cc2-c2cccnc2)C2CC2)c1F [CMP2, N-cyclopropyl-3-(difluoromethyl)-5-fluoro-1-methyl-N-{[5-(trifluoromethyl)-3,3′-bipyridin-2-yl]methyl}-1H-pyrazole-4-carboxamide, reference compound]
Botrytis cinerea; dose 100 ppm
  Efficacy (Table B1): 0%
Botrytis cinerea; dose 500 ppm
  Efficacy (Table B1): 0%
Botrytis cinerea
  protection: no protection
Uromyces appendiculatus; dose 100 ppm
  Efficacy (Table G1): 0%
Uromyces appendiculatus; dose 500 ppm
  Efficacy (Table G1): 0%

## Cn1nc(C(F)F)c(C(=O)N(Cc2ncc(C(F)(F)F)cc2-c2ccncc2)C2CC2)c1F [CMP3, N-cyclopropyl-3-(difluoromethyl)-5-fluoro-1-methyl-N-{[5-(trifluoromethyl)-3,4′-bipyridin-2-yl]methyl}-1H-pyrazole-4-carboxamide, reference compound]
Botrytis cinerea; dose 100 ppm
  Efficacy (Table B1): 0%
Botrytis cinerea; dose 500 ppm
  Efficacy (Table B1): 0%
Botrytis cinerea
  protection: no protection
Uromyces appendiculatus; dose 100 ppm
  Efficacy (Table G1): 0%
Uromyces appendiculatus; dose 500 ppm
  Efficacy (Table G1): 17%

## Cc1nc(C)c(-c2sccc2CN(C(=O)c2c(C(F)F)nn(C)c2F)C2CC2)s1 [I.11]
[1]
  logP: 2.88
Puccinia recondita; 500 ppm of active ingredient, wheat plants, evaluated 11 days after inoculation
  efficacy: at least 60%
Puccinia recondita; dose 500 ppm, wheat, compound of this patent
  Efficacy (Table C3): 69%

## Cn1nc(C(F)F)c(C(=O)N(Cc2ncc(C(F)(F)F)cc2-c2cccs2)C2CC2)c1F [I.19]
[1]
  logP: 3.89
Botrytis cinerea; dose 100 ppm
  Efficacy (Table B1): 100%
Botrytis cinerea; dose 500 ppm
  Efficacy (Table B1): 95%
Uromyces appendiculatus; dose 100 ppm
  Efficacy (Table G1): 100%
Uromyces appendiculatus; dose 500 ppm
  Efficacy (Table G1): 100%

## Cc1ccc(-c2cc(C(F)(F)F)cnc2CN(C(=O)c2c(C(F)F)nn(C)c2F)C2CC2)s1 [I.21]
[1]
  logP: 4.35
Puccinia recondita; [5]
  Efficacy at 100 ppm (Table C1): 89%
  Efficacy at 500 ppm (Table C1): 98%

## COc1ccsc1-c1cc(C(F)(F)F)cnc1CN(C(=O)c1c(C(F)F)nn(C)c1F)C1CC1 [I.23]
[1]
  logP: 3.89
Puccinia recondita; [5]
  Efficacy at 100 ppm (Table C1): 98%
  Efficacy at 500 ppm (Table C1): 100%

## Cn1nc(C(F)F)c(C(=O)N(Cc2ncc(C(F)(F)F)cc2-c2ccnc3cc(Cl)ccc23)C2CC2)c1F [I.29]
[1]
  logP: 3.78
Botrytis cinerea; dose 100 ppm
  Efficacy (Table B1): 39%
Botrytis cinerea; dose 500 ppm
  Efficacy (Table B1): 83%
Uromyces appendiculatus; dose 100 ppm
  Efficacy (Table G1): 67%
Uromyces appendiculatus; dose 500 ppm
  Efficacy (Table G1): 100%

## Cc1cscc1-c1cc(C(F)(F)F)cnc1CN(C(=S)c1c(C(F)F)nn(C)c1F)C1CC1 [I.37]
[1]
  logP: 4.67
Puccinia recondita; [6]
  Efficacy (Table C2): 86%
Puccinia recondita; [7]
  Efficacy (Table C2): 93%

## Cn1cc(C(=O)N(Cc2ncc(C(F)(F)F)cc2-c2ccsc2)C2CC2)c(C(F)F)n1 [I.41]
[1]
  logP: 3.42
Puccinia recondita; [6]
  Efficacy (Table C2): 79%
Puccinia recondita; [7]
  Efficacy (Table C2): 93%
